# Tests used:
# [1] = tested on: biomarkers for myocardial infarction risk; conditions: clinical trial; cited from earlier work
# [2] = tested on: synthesis of LTB4 in human whole blood; assay: Human whole blood assay (calcimycin-stimulated LTB4 synthesis); assay type: cell-based; conditions: Homo sapiens; read-out: Human Whole Blood LTB4 Assay for FLAP (IC50 nM)
# In short: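 LTB4 in plasma was quantified by HTRF immunoassay. Before that, compound-treated heparinized whole blood (15 min, 37 °C) received 20 μM final calcimycin for a further 30 min at 37 °C, followed by centrifugation at 1500×g.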
# [3] = biological target: T1, recombinant human FLAP protein (Homo sapiens, UniProt P20292); assay: FLAP binding assay (Scintillation Proximity Assay, displacement of [125I]L-691,831); conditions: read-out: Human FLAP SPA Binding (IC50 nM)
# T1 construct: made in house; host or cells: Sf9 insect cells (membrane fraction, 100,000 x g pellet)
# T1 sequence (P20292 1-161): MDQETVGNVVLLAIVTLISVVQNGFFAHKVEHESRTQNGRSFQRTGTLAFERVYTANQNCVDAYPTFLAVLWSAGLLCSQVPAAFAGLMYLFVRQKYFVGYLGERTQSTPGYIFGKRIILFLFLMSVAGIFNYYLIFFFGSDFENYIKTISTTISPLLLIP
# In short: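 Scintillation proximity displacement format: 0.08 nM iodinated MK-591 analog [125I]L-691,831 competes with test compound for human FLAP in sf9 insect-cell membranes (5 μg/well, WGA beads), 2 h with shaking, pH 7.5 Tris buffer. 10 μM cold L-691,831 defines non-specific binding.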
# human glomerulonephritis = conditions: clinical trial; cited from earlier work
# ApoE−/−xCD4dnTβRII mice = conditions: infusion, treated for four weeks; cited from earlier work
# [4] = tested on: apoE/LDL-R double knockout mice; conditions: oral dosing, high-fat diet from 2 months of age to 6 months; cited from earlier work
smiles,measurement,setting,value
O=C(O)[C@@H](c1ccc(OCc2ccc3ccccc3n2)cc1)C1CCCC1 [DG-031],effect on biomarkers for myocardial infarction risk,[1],dose-dependent suppression of several biomarkers
"CC(C)(O)Cn1cc(-c2cnc(C(C)(c3ccc(-c4cnc(N)nc4)nc3)C3CC3)s2)cn1 (stereo not shown) [Example 212, 1-[4-(2-{1-[6-(2-Amino-pyrimidin-5-yl)-pyridin-3-yl]-1-cyclopropyl-ethyl}-thiazol-5-yl)-pyrazol-1-yl]-2-methyl-propan-2-ol]",IC50,[2],410 nM
same,IC50,[3],130 nM
CC(C)(C)Sc1c(CC(C)(C)C(=O)O)n(Cc2ccc(Cl)cc2)c2ccc(OCc3ccc4ccccc4n3)cc12 [MK-591],effect on proteinuria,human glomerulonephritis,reduce proteinuria
CC(C)c1ccc2c(c1)c(SC(C)(C)C)c(CC(C)(C)C(=O)O)n2Cc1ccc(Cl)cc1 [MK-886],decrease in plaque area in the aortic root,ApoE−/−xCD4dnTβRII mice,~40%
same,decrease in plaque coverage in the aorta,[4],56%
same,decrease in plaque coverage in the aortic root,[4],43%
